Laboratory results as given in US20180369195A1, “COMBINATION THERAPY FOR TREATMENT OF MELANOMA” (The Regents of the University of California, priority 2015, published 2018).

Experiments:
[1] = tested on: multiple melanoma cell lines; assay: Flow cytometry analysis of DNA content, multiple melanoma cell lines; assay type: cell-based, human
Description: (§1) Melanoma cells were treated with the indicated concentrations of 1-benzyl I3C in triplicates every 24 hours and harvested at the end of 24, 48 or 72 hours for cell cycle analysis. The DNA content of propidium iodide stained nuclei from harvested cells were determined by flow cytometry. Briefly, cells were hypotonically lysed in […] of DNA staining solution (0.5 mg/mL propidium iodide, 0.1% sodium citrate, and 0.05% Triton-X 100). Emitted fluorescence from the nuclear of wavelengths more than 585 nm was measured with a Coulter Elite instrument with laser output adjusted to deliver 15 mW at 488 nm. Ten thousand nuclei were analyzed from each sample at a rate of 300-500 nuclei/second. The percentage of cells within the G1, S, and G2/M phases of the cell cycle were determined by analysis with the Multicycle computer program provided by Phoenix Flow Systems in the Cancer Research Laboratory Microchemical Facility of the University of California, Berkeley.

Wnt signaling pathway = assay: Immunofluorescence of tumor xenograft sections for Wnt signaling pathway; assay type: in vivo, human; conditions: 1-benzyl I3C treated tumor xenografts vs DMSO
Description: Approximately 1 million G361 melanoma cells in a total volume of 0.1 ml of Matrigel were injected subcutaneously into each lateral flank of NIH III athymic nude mice. The resulting tumors were allowed to grow to a mean starting volume of 146±10 mm^3. The animals were then randomized into two groups; a vehicle control group that was treated with DMSO and an I3C treated group that were injected daily with 200 mg/kg body weight of I3C. The resulting tumor volumes were measured every other day for four weeks using calipers. The tumor volumes were calculated using the standard formula: […], and changes in tumor volumes were calculated using the formula: 100+{(Tf−Ti)/Ti×100}, where Tf is the final mean tumor volume and Ti is the initial mean tumor volume. At terminal sacrifice, tumor xenografts were harvested, and a portion of each tumor was fixed in 4% para-formaldehyde for 1 hour at room temperature, followed by a phosphate-buffered saline (PBS) wash and subsequently immersed in […] overnight at 4° C. The resulting tissues were embedded in OCT and 10 μm thin sections were taken for immunofluorescence studies.

GSK3β and Axin = assay: Western blot of β-catenin destruction complex components; assay type: cell-based, human; conditions: melanoma cell lines, 20 μM 1-benzyl I3C
Description: (§2) Western Blot analyses of samples electrophoretically fractionated on 12% acrylamide gels were carried out as previously described (Wagle et al., J. Clin. Oncol. 2011. 29(22):3085-3096; Nguyen et al., Chem. Biol. Interact. 2010. 186(3):255-266). Enhanced chemiluminescence (ECL) Lightening reagents were used to visualize the primary antibody bound protein bands in nitrocellulose membranes and the results captured on ECL Autoradiography Film (GE Healthcare, Piscataway, N.J.). The western blots employed the following primary antibodies: mouse anti-MITF-M (Thermo-scientific), mouse anti-HSP 90 (BD Biosciences), mouse anti-CDK2, rabbit anti-CDK4, rabbit anti-CDK-6, mouse anti-rabbit BRAF, goat anti-LEF-1, rabbit anti-AXIN, mouse anti-BCL2, (Santa Cruz), rabbit anti-P21, mouse anti-Cyclin D1, rabbit anti-MEK-p, rabbit anti-MEK1/2, rabbit anti-GSK3β rabbit anti-LRP6, rabbit anti-LRP6-phospho (Cell signaling), mouse anti-β-catenin (Invitrogen).

[2] = tested on: 5 different melanoma cells lines; assay: CCK-8 proliferation assay, 5 melanoma cell lines with distinct mutation profiles; assay type: cell-based, human; conditions: 20 μM 1-benzyl I3C, 200 μM I3C, 48 hours
Description: The same treatment regime was repeated on multiple melanoma cell lines with 20 μM 1-benzyl I3C and 200 μM I3C for 48 hours to compare the relative sensitivities of the different cell lines with distinct mutation profiles to 1-benzyl I3C and I3C. Cells were treated with 20 μM 1-benzyl I3C every 24 hours for 72 hours and harvested at 24, 48 and 72 hours for western blot and flow cytometric analysis. Cells were treated with 20 μM LiCl or 10 μM BIO for 48 hours before harvesting them for western blots.
Subsequently inhibition of proliferation was assessed using Cell counting Kit-8 (Dojindo) as per the protocol in the user's manual. Briefly, 50 μl of the CCK-8 solution was added to each well along with 450 μl media and incubated for 2-3 hours. The absorbance was read at 450 nm and % inhibition was calculated for each condition standardizing DMSO to zero using the formula: [(100−Value of treatment/Value of DMSO treated control)×100]

BRAF-V600E = target: T1, BRAF-V600E (Homo sapiens, UniProt P15056, V600E); assay: BRAF kinase assay on BRAF immunoprecipitated from pretreated G-361 cells; assay type: biochemical; conditions: G-361 cells treated 48 hours; 200 μM or 400 μM I3C, 10 μM Vemurafenib
T1 construct: BRAF-V600E was immunoprecipitated from untreated G-361 cells and incubated in vitro; endogenous in cells; host or cells: G-361 human melanoma cells (ATCC)
T1 sequence (P15056 whole entry V600E): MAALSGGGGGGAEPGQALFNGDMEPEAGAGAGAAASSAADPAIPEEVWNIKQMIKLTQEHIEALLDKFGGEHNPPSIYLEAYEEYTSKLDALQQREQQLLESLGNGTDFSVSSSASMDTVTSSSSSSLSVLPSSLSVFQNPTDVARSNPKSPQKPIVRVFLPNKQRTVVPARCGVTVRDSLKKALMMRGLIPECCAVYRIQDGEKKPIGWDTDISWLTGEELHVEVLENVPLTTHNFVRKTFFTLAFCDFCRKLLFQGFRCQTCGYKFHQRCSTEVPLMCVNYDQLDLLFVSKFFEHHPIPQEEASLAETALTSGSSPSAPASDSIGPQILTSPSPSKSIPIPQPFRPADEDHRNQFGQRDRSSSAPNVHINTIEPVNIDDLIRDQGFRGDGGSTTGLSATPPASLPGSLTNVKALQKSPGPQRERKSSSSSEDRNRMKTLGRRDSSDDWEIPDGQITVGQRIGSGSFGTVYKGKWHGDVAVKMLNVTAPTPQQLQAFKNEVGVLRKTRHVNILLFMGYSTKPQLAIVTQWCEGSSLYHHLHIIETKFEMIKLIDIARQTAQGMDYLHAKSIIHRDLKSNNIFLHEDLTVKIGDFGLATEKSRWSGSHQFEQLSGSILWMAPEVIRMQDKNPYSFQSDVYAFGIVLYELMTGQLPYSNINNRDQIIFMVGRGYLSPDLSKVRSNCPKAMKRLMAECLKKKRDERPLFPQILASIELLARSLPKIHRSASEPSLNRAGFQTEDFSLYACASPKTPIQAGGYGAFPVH
Description: BRAF was pulled down from the cell lysates using anti-BRAF antibodies bound to protein G-coupled Sepharose beads, while IgG was used as a negative control. Post-immunoprecipitation supernatants were probed with anti BRAF antibody by western blots to determine pull-down efficiency. […] The reactions were terminated by adding 4× sodium dodecyl sulfate (SDS) sample buffer and boiling the mixture at 100° C. for 5 min. The samples were then electrophoresed, immunoblotted and probed for relative protein levels of phosphorylated MEK and total MEK to assess the kinase activity of the immunoprecipitated BRAF.

CDK4 = assay: Western blot of CDK4; assay type: cell-based, human; conditions: G-361 cells, 48 hours; 200 μM I3C, 10 μM Vemurafenib or 10 μM U0126
Description: as §2

DM738 cells = assay: Flow cytometry analysis of DNA content, DM738; assay type: cell-based, human; conditions: maximal dose of 200 μM I3C
Description: as §1, with “I3C” left out

phosphorylated Erk/MAPK = assay: Western blot of phosphorylated Erk/MAPK; assay type: cell-based, human; conditions: 200 μM I3C
Description: Western Blot analyses of samples electrophoretically fractionated on 12% acrylamide gels were carried out as previously described (Wagle et al., J. Clin. Oncol. 2011. 29(22):3085-3096; Nguyen et al., Chem. Biol. Interact. 2010. 186(3):255-266). […] The western blots employed the following primary antibodies: mouse anti-MITF-M (Thermo-scientific), mouse anti-HSP 90 (BD Biosciences), mouse anti-CDK2, rabbit anti-CDK4, rabbit anti-CDK-6, mouse anti-rabbit BRAF, goat anti-LEF-1, rabbit anti-AXIN, mouse anti-BCL2, (Santa Cruz), rabbit anti-P21, mouse anti-Cyclin D1, rabbit anti-MEK-p, rabbit anti-MEK1/2, rabbit anti-GSK3β rabbit anti-LRP6, rabbit anti-LRP6-phospho (Cell signaling), mouse anti-β-catenin (Invitrogen).

| SMILES | time to significant G1 cell cycle arrest ([1]; 20 μM 1-benzyl I3C, all the cell lines) | G1 cell cycle arrest ([1]; varying doses of 1-benzyl I3C, 48 hours) | effect on Wnt signaling pathway in tumor xenograft sections (Wnt signaling pathway) | GSK3β and Axin levels (GSK3β and Axin) | range of sensitivity across mutation profiles [2] | BRAF-V600E enzymatic activity (phosphorylated MEK) after cellular treatment (BRAF-V600E) | CDK4 protein levels (CDK4) | G1 cell cycle arrest (DM738 cells) | phosphorylated Erk/MAPK levels (phosphorylated Erk/MAPK; G-361 and DM738 cells, 72 hour time course) | phosphorylated Erk/MAPK levels (phosphorylated Erk/MAPK; G-361 cells, 48 hours, 10 μM Vemurafenib or 10 μM U0126) | phosphorylated Erk/MAPK levels (phosphorylated Erk/MAPK; SK-MEL-2 cells, 72 hour time course) |
| --- | --- | --- | --- | --- | --- | --- | --- | --- | --- | --- | --- |
| OCc1cn(Cc2ccccc2)c2ccccc12 [1-benzyl I3C, 1-benzyl indole-3-carbinol] | ≤ 24 h | significant G1 cell cycle arrest | mimicked the cell culture data | upregulation | much wider range of sensitivity than I3C and Vemurafenib | – | – | – | – | – | – |
| OCc1c[nH]c2ccccc12 [I3C, indole-3-carbinol] | – | – | – | – | – | significantly inhibited BRAF-V600E enzymatic activity | down regulated | significant G1 cell cycle arrest | strongly down regulated | down regulated | no effect |
